Results as given in patent publication US6472348B1, “Pyridone derivatives and herbicides” (Kumiai Chemical Industry Co., Ltd., priority 1996, dated 2002).

How the values were obtained:
monochoria (Mo) = assay: Test Example 1: herbicidal effects by paddy field soil treatment; assay type: in vivo; conditions: 100 g of the active ingredient per 10 ares, 21st day after the application, index 0-5 of Table 47;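 also: grade of growth control; 5 = at least 90%; 4 = 70 to 90%; 3 = 50 to 70%; 2 = 30 to 50%; 1 = 10 to 30%; 0 = under 10%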
How it was run: (§1)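 Flooded paddy-soil pots (3 cm water) sown after puddling/leveling; treatment 100 g a.i./10 ares; greenhouse culture; herbicidal effect rated visually on a scoring scale at 21 d post-application.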

bulrush (Sc) = assay: as above; assay type: in vivo; conditions: 100 g of the active ingredient per 10 ares, 21st day after the application, index 0-5 of Table 47;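 also: grade of growth control; 5 = at least 90%; 4 = 70 to 90%; 3 = 50 to 70%; 2 = 30 to 50%; 1 = 10 to 30%; 0 = under 10%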
How it was run: as §1

barnyardgrass (Ec) [1] = assay: as above; assay type: in vivo; conditions: 100 g of the active ingredient per 10 ares, 21st day after the application, index 0-5 of Table 47
How it was run: as §1

slender amaranth (Am) [2] = assay: Test Example 3: herbicidal effects by upland field foliage treatment; assay type: in vivo; parameters: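 grade of growth control; 5 = at least 90%; 4 = 70 to 90%; 3 = 50 to 70%; 2 = 30 to 50%; 1 = 10 to 30%; 0 = under 10%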
How it was run: (§2)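 Pot culture: sand, 120 cm^2 surface; seeds sown, soil-covered, greenhouse 2 weeks. Foliage treatment applied at that stage. Herbicidal effect rated by standard scale, day 14 post-treatment.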

Diaitaria ciliaris (Di) [3] = assay: as above; assay type: in vivo; parameters: scale not given here
How it was run: as §2

rice flatsedge (Ci) [4] = assay: as above; assay type: in vivo; parameters: scale not given here
How it was run: as §2

pale smartweed (Po) [5] = assay: as above; assay type: in vivo; parameters: scale not given here
How it was run: as §2

[6] = tested on: common lambsquarters (Ch); assay: as above; assay type: in vivo; parameters: scale not given here
How it was run: as §2

barnyardgrass (Ec) [7] = assay: as above; assay type: in vivo; parameters: scale not given here
How it was run: as §2

cotton (Go) = assay: Test Example 4: crop plant selectivity by upland field soil treatment (cotton), phytotoxicity; assay type: in vivo; parameters: scale not given here; conditions: evaluated 21st day after application
How it was run: (§3)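 Sand-filled pots, seeds sown then soil-covered; soil application; greenhouse culture; visual scoring of weed control and cotton injury at day 21 post-application.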

slender amaranth (Am) [8] = assay: Test Example 2: herbicidal effects by upland field soil treatment; assay type: in vivo; conditions: 100 g of the active ingredient per 10 ares;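 also: grade of growth control; 5 = at least 90%; 4 = 70 to 90%; 3 = 50 to 70%; 2 = 30 to 50%; 1 = 10 to 30%; 0 = under 10%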
From the text: (§4) (Test on Herbicidal Effects by Upland Field Soil Treatment)

Digitaria ciliaris (Di) = assay: as above; assay type: in vivo; conditions: 100 g of the active ingredient per 10 ares;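 also: grade of growth control; 5 = at least 90%; 4 = 70 to 90%; 3 = 50 to 70%; 2 = 30 to 50%; 1 = 10 to 30%; 0 = under 10%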
From the text: as §4

rice flatsedge (Ci) [9] = assay: as above; assay type: in vivo; conditions: 100 g of the active ingredient per 10 ares
From the text: as §4

pale smartweed (Po) [10] = assay: as above; assay type: in vivo; conditions: 100 g of the active ingredient per 10 ares
From the text: as §4

[11] = tested on: common lambsquarters (Ch); assay: as above; assay type: in vivo; conditions: 100 g of the active ingredient per 10 ares
From the text: as §4

barnyardgrass (Ec) [12] = assay: as above; assay type: in vivo; conditions: 100 g of the active ingredient per 10 ares
From the text: as §4

Diaitaria ciliaris (Di) [13] = assay: Test Example 4: crop plant selectivity by upland field soil treatment (cotton), herbicidal effects; assay type: in vivo; conditions: evaluated 21st day after application
Procedure: (Test on Crop Plant Selectivity by Upland Field Soil Treatment)
In a plastic pot (surface area: 600 cm^2) filled with sand, cotton (Go), Diaitaria ciliaris (Di), green foxtail (Se), pale smartweed (Po), slender amaranth (Am), common lambsquarters (Ch) and China jute (Ab) were sown and covered with soil. […] The plants were then cultured in a green house, and the evaluation of the herbicidal effects and phytotoxicity was conducted on the 21st day after the application in accordance with the standards as identified in Table 47. Symbol—represents “not tested”.

slender amaranth (Am) [14] = assay: as above; assay type: in vivo; parameters: scale not given here; conditions: evaluated 21st day after application
How it was run: as §3

China jute (Ab) [15] = assay: as above; assay type: in vivo; parameters: scale not given here; conditions: evaluated 21st day after application
How it was run: as §3

pale smartweed (Po) [16] = assay: as above; assay type: in vivo; parameters: scale not given here; conditions: evaluated 21st day after application
How it was run: as §3

[17] = tested on: common lambsquarters (Ch); assay: as above; assay type: in vivo; parameters: scale not given here; conditions: evaluated 21st day after application
How it was run: as §3

green foxtail (Se) [18] = assay: as above; assay type: in vivo; parameters: scale not given here; conditions: dose 6.3 g ai/10 a, evaluated 21st day after application
How it was run: as §3

corn (Ze) = assay: Test Example 7: crop plant selectivity by upland field soil treatment (corn), phytotoxicity; assay type: in vivo; parameters: scale not given here; conditions: dose 6.3 g ai/10a, 21st day after application
How it was run: (§5)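 Seeds of corn and of each weed species are sown in a pot of sand and covered with soil. The compound is applied, and the pots are kept in a greenhouse. On the 21st day, weed control and crop injury are judged by set criteria.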

wheat (Tr) = assay: Test Example 5: crop plant selectivity by upland field soil treatment (wheat), phytotoxicity; assay type: in vivo; parameters: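 grade of crop injury; 5 = at least 90%; 4 = 70 to 90%; 3 = 50 to 70%; 2 = 30 to 50%; 1 = 10 to 30%; 0 = under 10%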; conditions: dose 6.3 g ai/10a, 21st day after application
How it was run: (§6)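 Seeds sown in pots of sand and covered with soil. Soil treatment applied. Plants cultured in a greenhouse. Effects rated by standard scale after 21 days.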

slender amaranth (Am) [19] = assay: Test Example 7: crop plant selectivity by upland field soil treatment (corn), herbicidal effects; assay type: in vivo; parameters: scale not given here; conditions: dose 6.3 g ai/10a, 21st day after application
How it was run: as §5

China jute (Ab) [20] = assay: as above; assay type: in vivo; parameters: scale not given here; conditions: dose 6.3 g ai/10a, 21st day after application
How it was run: as §5

pale smartweed (Po) [21] = assay: as above; assay type: in vivo; parameters: scale not given here; conditions: dose 6.3 g ai/10a, 21st day after application
How it was run: as §5

[22] = tested on: common lambsquarters (Ch); assay: as above; assay type: in vivo; parameters: scale not given here; conditions: dose 6.3 g ai/10a, 21st day after application
How it was run: as §5

green foxtail (Se) [23] = assay: as above; assay type: in vivo; parameters: scale not given here; conditions: dose 6.3 g ai/10a, 21st day after application
How it was run: as §5

slender amaranth (Am) [24] = assay: Test Example 5: crop plant selectivity by upland field soil treatment (wheat), herbicidal effects; assay type: in vivo; parameters: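 grade of growth control; 5 = at least 90%; 4 = 70 to 90%; 3 = 50 to 70%; 2 = 30 to 50%; 1 = 10 to 30%; 0 = under 10%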; conditions: dose 6.3 g ai/10a, 21st day after application
How it was run: as §6

China jute (Ab) [25] = assay: as above; assay type: in vivo; parameters: scale not given here; conditions: dose 6.3 g ai/10a, 21st day after application
How it was run: as §6

pale smartweed (Po) [26] = assay: as above; assay type: in vivo; parameters: scale not given here; conditions: dose 6.3 g ai/10a, 21st day after application
How it was run: as §6

[27] = tested on: common lambsquarters (Ch); assay: as above; assay type: in vivo; parameters: scale not given here; conditions: dose 6.3 g ai/10a, 21st day after application
How it was run: as §6

green foxtail (Se) [28] = assay: as above; assay type: in vivo; parameters: scale not given here; conditions: dose 6.3 g ai/10a, 21st day after application
How it was run: as §6

soybean (Gl) = assay: Test Example 6: crop plant selectivity by upland field soil treatment (soybean), phytotoxicity; assay type: in vivo; parameters: scale not given here; conditions: dose 6.3 g ai/10a, 21st day after application
How it was run: (§7)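 Scoring took place 21 days after treatment using a set grading standard, covering both weed control and soybean injury. Seeds of soybean and weed species went into sand-filled pots under a soil cover before soil treatment and greenhouse culture.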

slender amaranth (Am) [29] = assay: Test Example 6: crop plant selectivity by upland field soil treatment (soybean), herbicidal effects; assay type: in vivo; parameters: scale not given here; conditions: dose 6.3 g ai/10a, 21st day after application
How it was run: as §7

China jute (Ab) [30] = assay: as above; assay type: in vivo; parameters: scale not given here; conditions: dose 6.3 g ai/10a, 21st day after application
How it was run: as §7

pale smartweed (Po) [31] = assay: as above; assay type: in vivo; parameters: scale not given here; conditions: dose 6.3 g ai/10a, 21st day after application
How it was run: as §7

[32] = tested on: common lambsquarters (Ch); assay: as above; assay type: in vivo; parameters: scale not given here; conditions: dose 6.3 g ai/10a, 21st day after application
How it was run: as §7

green foxtail (Se) [33] = assay: as above; assay type: in vivo; parameters: scale not given here; conditions: dose 6.3 g ai/10a, 21st day after application
How it was run: as §7

[34] = 100 g of the active ingredient per 10 ares, evaluated on the 14th day after treatment
[35] = 21st day after the application, index 0-5 of Table 47
[36] = 100 g active ingredient per 10 ares, evaluated 14th day after treatment
[37] = evaluated on the 21st day after application

CC(C)Oc1cc(-c2ccc(C(F)(F)F)n(C)c2=O)c(F)cc1Cl [Compound No. 1-14]
Herbicidal effects Mo (monochoria (Mo)): 5
Herbicidal effects Sc (bulrush (Sc)): 5
Herbicidal effects Ec (barnyardgrass (Ec) [1]): 5
Herbicidal effects Am (slender amaranth (Am) [2]; [34]): 5
Herbicidal effects Di (Diaitaria ciliaris (Di) [3]; [34]): 5
Herbicidal effects Ci (rice flatsedge (Ci) [4]; [34]): 5
Herbicidal effects Po (pale smartweed (Po) [5]; [34]): 5
Herbicidal effects Ch [6, 34]: 5
Herbicidal effects Ec (barnyardgrass (Ec) [7]; [34]): 5
Phytotoxicity Go (cotton (Go); dose 1.6 g ai/10 a): 0
Phytotoxicity Go (cotton (Go); dose 6.3 g ai/10 a): 0
Herbicidal effects Am (slender amaranth (Am) [8]; [35]): 5
Herbicidal effects Di (Digitaria ciliaris (Di); [35]): 5
Herbicidal effects Ci (rice flatsedge (Ci) [9]; [35]): 5
Herbicidal effects Po (pale smartweed (Po) [10]; [35]): 5
Herbicidal effects Ch [11, 35]: 5
Herbicidal effects Ec (barnyardgrass (Ec) [12]; [35]): 5
Herbicidal effects Di (Diaitaria ciliaris (Di) [13]; dose 1.6 g ai/10 a): 5
Herbicidal effects Di (Diaitaria ciliaris (Di) [13]; dose 6.3 g ai/10 a): 5
Herbicidal effects Am (slender amaranth (Am) [14]; dose 1.6 g ai/10 a): 5
Herbicidal effects Am (slender amaranth (Am) [14]; dose 6.3 g ai/10 a): 5
Herbicidal effects Ab (China jute (Ab) [15]; dose 1.6 g ai/10 a): 4
Herbicidal effects Ab (China jute (Ab) [15]; dose 6.3 g ai/10 a): 5
Herbicidal effects Po (pale smartweed (Po) [16]; dose 1.6 g ai/10 a): 5
Herbicidal effects Po (pale smartweed (Po) [16]; dose 6.3 g ai/10 a): 5
Herbicidal effects Ch ([17]; dose 1.6 g ai/10 a): 5
Herbicidal effects Ch ([17]; dose 6.3 g ai/10 a): 5
Herbicidal effects Se (green foxtail (Se) [18]): 5

Cn1c(C(F)(F)F)ccc(-c2c(F)cc(Cl)c3oc(CBr)cc23)c1=O [Compound No. 4-7, 3-(2-bromomethyl-7-chloro-5-fluorobenzofuran-4-yl)-1-methyl-6-trifluoromethyl-2-(1H)-pyridone]
Herbicidal effects Mo (monochoria (Mo)): 5
Herbicidal effects Sc (bulrush (Sc)): 5
Herbicidal effects Ec (barnyardgrass (Ec) [1]): 5
Herbicidal effects Am (slender amaranth (Am) [2]; [36]): 5
Herbicidal effects Di (Diaitaria ciliaris (Di) [3]; [36]): 5
Herbicidal effects Ci (rice flatsedge (Ci) [4]; [36]): 5
Herbicidal effects Po (pale smartweed (Po) [5]; [36]): 5
Herbicidal effects Ch [6, 36]: 5
Herbicidal effects Ec (barnyardgrass (Ec) [7]; [36]): 5
Phytotoxicity Ze (corn (Ze)): 2
Phytotoxicity Go (cotton (Go); dose 6.3 g ai/10 a): 1
Phytotoxicity Tr (wheat (Tr)): 1
Herbicidal effects Am (slender amaranth (Am) [8]; [37]): 5
Herbicidal effects Di (Digitaria ciliaris (Di); [37]): 5
Herbicidal effects Ci (rice flatsedge (Ci) [9]; [37]): 5
Herbicidal effects Po (pale smartweed (Po) [10]; [37]): 5
Herbicidal effects Ch [11, 37]: 5
Herbicidal effects Ec (barnyardgrass (Ec) [12]; [37]): 5
Herbicidal effects Am (slender amaranth (Am) [19]): 5
Herbicidal effects Ab (China jute (Ab) [20]): 5
Herbicidal effects Po (pale smartweed (Po) [21]): 5
Herbicidal effects Ch [22]: 5
Herbicidal effects Se (green foxtail (Se) [23]): 5
Herbicidal effects Am (slender amaranth (Am) [24]): 5
Herbicidal effects Ab (China jute (Ab) [25]): 5
Herbicidal effects Po (pale smartweed (Po) [26]): 5
Herbicidal effects Ch [27]: 5
Herbicidal effects Se (green foxtail (Se) [28]): 5
melting point: 142 to 144 °C
Phytotoxicity Gl (soybean (Gl)): 1
Herbicidal effects Am (slender amaranth (Am) [14]; dose 6.3 g ai/10 a): 5
Herbicidal effects Ab (China jute (Ab) [15]; dose 6.3 g ai/10 a): 5
Herbicidal effects Po (pale smartweed (Po) [16]; dose 6.3 g ai/10 a): 5
Herbicidal effects Ch ([17]; dose 6.3 g ai/10 a): 5
Herbicidal effects Se (green foxtail (Se) [18]): 5
Herbicidal effects Am (slender amaranth (Am) [29]): 5
Herbicidal effects Ab (China jute (Ab) [30]): 5
Herbicidal effects Po (pale smartweed (Po) [31]): 5
Herbicidal effects Ch [32]: 5
Herbicidal effects Se (green foxtail (Se) [33]): 5
